Source: patent publication US20090082203A1, “INSECTICIDAL BIS(SUBSTITUTED PHENYL)-1-{[4-(SATURATED HETEROCYCLYL-SUBSTITUTED)PHENYLMETHYL]- (4-PIPERIDYL)}METHANE DERIVATIVES” (priority 2004, published 2009)

Tested on: tobacco budworm (Heliothis virescens [Fabricius])
Test: surface-treated diet test against tobacco budworm
Format: in vivo
Settings: for Percent Growth Inhibition: inhibition of insect weight relative to untreated controls
Description: Candidate insecticides were evaluated for activity against the tobacco budworm (Heliothis virescens [Fabricius]) in a surface-treated diet test.
In this test one mL of molten (65-70° C.) wheat germ-based artificial diet was pipetted into each well of a four by six (24 well) multi-well plate (ID# 430345-15.5 mm dia.×17.6 mm deep; Corning Costar Corp., One Alewife Center, Cambridge, Mass. 02140). The diet was allowed to cool to ambient temperature before treatment with candidate insecticide.
For a determination of insecticidal activity, solutions of the candidate insecticides were prepared for testing using a Packard 204DT Multiprobe® Robotic System (Packard Instrument Company, 800 Research Parkway, Meriden, Conn. 06450), in which the robot first diluted a standard 50 millimolar DMSO solution of candidate insecticide with a 1:1 water/acetone solution (V/V) in a ratio of 1:7 stock solution to water/acetone. The robot subsequently pipetted 40 microliters of the so-prepared solution onto the surface of the diet in each of three wells in the 24 multi-well plate. The process was repeated with solutions of seven other candidate insecticides. Once treated, the contents of the multi-well plate were allowed to dry, leaving 0.25 millimoles of candidate insecticide on the surface of the diet, or a concentration of 0.25 millimolar. Appropriate untreated controls containing only DMSO on the diet surface were also included in this test.
For evaluations of the insecticidal activity of a candidate insecticide at varying rates of application, the test was established as described above using sub-multiples of the standard 50 millimolar DMSO solution of candidate insecticide. For example, the standard 50 millimolar solution was diluted by the robot with DMSO to give 5, 0.5, 0.05, 0.005, 0.0005 millimolar, or more dilute solutions of the candidate insecticide. In these evaluations there were six replicates of each rate of application placed on the surface of the diet in the 24 multi-well plate, for a total of four rates of application of candidate insecticide in each plate.
In each well of the test plate was placed one second instar tobacco budworm larvae, each weighing approximately five milligrams. After the larvae were placed in each well, the plate was sealed with clear polyfilm adhesive tape. The tape over each well was perforated to ensure an adequate air supply. The plates were then held in a growth chamber at 25° C. and 60% relative humidity for five days (light 14 hours/day).
After the five-day exposure period insecticidal activity for each rate of application of candidate insecticide was assessed as percent inhibition of insect weight relative to the weight of insects from untreated controls, and percent mortality when compared to the total number of insects infested.
The test compounds of formula I are identified by numbers that correspond to those in Table 1.

[1] = 0.25 millimolar on the surface of the diet, second instar larvae, five-day exposure, compared to the total number of insects infested
[2] = 0.25 millimolar on the surface of the diet, second instar larvae, five-day exposure

Compound	Percent Mortality [1] [%]	Percent Growth Inhibition [2] [%]	Percent Mortality (in vivo) [%]
CC1COC(COc2ccc(CN3CCC(C(O)(c4ccc(OC(F)(F)F)cc4)c4ccc(OC(F)(F)F)cc4)CC3)cc2)O1 (stereo not shown) [Compound 193]	100	100	–
CN1CCOC1c1ccc(CN2CCC(C(O)(c3ccc(OC(F)(F)F)cc3)c3ccc(OC(F)(F)F)cc3)CC2)cc1 (stereo not shown) [Compound 90]	100	100	–
COCC1COC(c2ccc(CN3CCC(C(O)(c4ccc(OC(F)(F)F)cc4)c4ccc(OC(F)(F)F)cc4)CC3)cc2)O1 (stereo not shown) [Compound 51]	100	100	–
[O-][N+]1(Cc2ccc(OCC3(c4ccccc4)OCCO3)cc2)CCC(C(O)(c2ccc(OC(F)(F)F)cc2)c2ccc(OC(F)(F)F)cc2)CC1 (stereo not shown) [Compound 185]	100	100	–
[O-][N+]1(Cc2ccc(C3OCCO3)c(F)c2)CCC(C(O)(c2ccc(OC(F)(F)F)cc2)c2ccc(OC(F)(F)F)cc2)CC1 (stereo not shown) [Compound 175]	100	100	–
[O-][N+]1(Cc2ccc(C3(Cc4ccccc4)OCCO3)cc2)CCC(C(O)(c2ccc(OC(F)(F)F)cc2)c2ccc(OC(F)(F)F)cc2)CC1 (stereo not shown) [Compound 65]	67	100	–
OC(c1ccc(OC(F)(F)F)cc1)(c1ccc(OC(F)(F)F)cc1)C1CCN(Cc2ccc(C3OCC(c4ccccc4)O3)cc2)CC1 (stereo not shown) [Compound 53]	100	100	–
[O-][N+]1(Cc2ccc(C3OCCO3)cc2)CCC(C(O)(c2ccc(OC(F)(F)F)cc2)c2ccc(OC(F)(F)F)cc2)CC1 (stereo not shown) [Compound 2]	–	100	100
[O-][N+]1(Cc2ccc(OCC3OCCO3)cc2)CCC(C(O)(c2ccc(OC(F)(F)F)cc2)c2ccc(OC(F)(F)F)cc2)CC1 (stereo not shown) [Compound 188]	100	100	–
CC1COC(COc2ccc(C[N+]3([O-])CCC(C(O)(c4ccc(OC(F)(F)F)cc4)c4ccc(OC(F)(F)F)cc4)CC3)cc2)O1 (stereo not shown) [Compound 194]	100	100	–
COCC1COC(COc2ccc(C[N+]3([O-])CCC(C(O)(c4ccc(OC(F)(F)F)cc4)c4ccc(OC(F)(F)F)cc4)CC3)cc2)O1 (stereo not shown) [Compound 197]	100	100	–
[O-][N+]1(Cc2ccc(C3O[C@H]4CCCC[C@H]4O3)cc2)CCC(C(O)(c2ccc(OC(F)(F)F)cc2)c2ccc(OC(F)(F)F)cc2)CC1 (stereo partly shown) [Compound 117]	100	100	–
OC(c1ccc(OC(F)(F)F)cc1)(c1ccc(OC(F)(F)F)cc1)C1CCN(Cc2ccc(C3(c4ccc(Cl)nc4)OCCO3)cc2)CC1 [Compound 83]	0	31	–
Cc1cc(C[N+]2([O-])CCC(C(O)(c3ccc(OC(F)(F)F)cc3)c3ccc(OC(F)(F)F)cc3)CC2)ccc1C1OCCO1 (stereo not shown) [Compound 170]	–	100	100
OC(c1ccc(OC(F)(F)F)cc1)(c1ccc(OC(F)(F)F)cc1)C1CCN(Cc2ccc(C3SCCS3)cc2)CC1 [Compound 15]	100	100	–
[O-][N+]1(Cc2ccc(CC3OCCO3)cc2)CCC(C(O)(c2ccc(OC(F)(F)F)cc2)c2ccc(OC(F)(F)F)cc2)CC1 (stereo not shown) [Compound 184]	100	100	–
CC1CCOC(c2ccc(CN3CCC(C(O)(c4ccc(OC(F)(F)F)cc4)c4ccc(OC(F)(F)F)cc4)CC3)cc2)O1 (stereo not shown) [Compound 47]	67	100	–
OC(c1ccc(OC(F)(F)F)cc1)(c1ccc(OC(F)(F)F)cc1)C1CCN(Cc2ccc(C3O[C@H]4COC[C@H]4O3)cc2)CC1 (stereo partly shown) [Compound 116]	100	100	–
[O-][N+]1(Cc2ccc(C3(c4ccoc4)OCCO3)cc2)CCC(C(O)(c2ccc(OC(F)(F)F)cc2)c2ccc(OC(F)(F)F)cc2)CC1 (stereo not shown) [Compound 101]	100	100	–

Compound	Percent Mortality [1] [%]	Percent Growth Inhibition [2] [%]	Percent Mortality (in vivo) [%]
[O-][N+]1(Cc2ccc(C3(c4ccc(Cl)nc4)OCCO3)cc2)CCC(C(O)(c2ccc(OC(F)(F)F)cc2)c2ccc(OC(F)(F)F)cc2)CC1 (stereo not shown) [Compound 87]	17	79	–
CC1(C)OCC(c2ccc(C[N+]3([O-])CCC(C(O)(c4ccc(OC(F)(F)F)cc4)c4ccc(OC(F)(F)F)cc4)CC3)cc2)O1 (stereo not shown) [Compound 77]	100	100	–
CC1CC(C)(C)OC(c2ccc(C[N+]3([O-])CCC(C(O)(c4ccc(OC(F)(F)F)cc4)c4ccc(OC(F)(F)F)cc4)CC3)cc2)O1 (stereo not shown) [Compound 80]	100	100	–
CCCCN1CCOC1c1ccc(CN2CCC(C(O)(c3ccc(OC(F)(F)F)cc3)c3ccc(OC(F)(F)F)cc3)CC2)cc1 (stereo not shown) [Compound 98]	100	100	–
C=CCOCC1COC(c2ccc(C[N+]3([O-])CCC(C(O)(c4ccc(OC(F)(F)F)cc4)c4ccc(OC(F)(F)F)cc4)CC3)cc2)O1 (stereo not shown) [Compound 93]	100	100	–
CC1OC(c2ccc(CN3CCC(C(O)(c4ccc(OC(F)(F)F)cc4)c4ccc(OC(F)(F)F)cc4)CC3)cc2)OC1C (stereo not shown) [Compound 121]	100	100	–
OC(c1ccc(OC(F)(F)F)cc1)(c1ccc(OC(F)(F)F)cc1)C1CCN(Cc2ccc(C3(c4cccc(Cl)c4)OCCO3)cc2)CC1 [Compound 85]	100	100	–
CC1(C)COC(c2ccc(CN3CCC(C(O)(c4ccc(OC(F)(F)F)cc4)c4ccc(OC(F)(F)F)cc4)CC3)cc2)OC1 [Compound 39]	100	100	–
CCC1COC(COc2ccc(CN3CCC(C(O)(c4ccc(OC(F)(F)F)cc4)c4ccc(OC(F)(F)F)cc4)CC3)cc2)O1 (stereo not shown) [Compound 196]	100	100	–
CC1(C)OC(c2ccc(C[N+]3([O-])CCC(C(O)(c4ccc(OC(F)(F)F)cc4)c4ccc(OC(F)(F)F)cc4)CC3)cc2)OC1(C)C (stereo not shown) [Compound 126]	100	100	–
OC(c1ccc(OC(F)(F)F)cc1)(c1ccc(OC(F)(F)F)cc1)C1CCN(Cc2ccc(C3OCCC(c4ccccc4)O3)cc2)CC1 (stereo not shown) [Compound 55]	100	100	–
CC1CCOC(c2ccc(C[N+]3([O-])CCC(C(O)(c4ccc(OC(F)(F)F)cc4)c4ccc(OC(F)(F)F)cc4)CC3)cc2)O1 (stereo not shown) [Compound 68]	100	100	–
[O-][N+]1(Cc2ccc(C3OCCCO3)cc2)CCC(C(O)(c2ccc(OC(F)(F)F)cc2)c2ccc(OC(F)(F)F)cc2)CC1 (stereo not shown) [Compound 5]	100	100	–
OC(c1ccc(OC(F)(F)F)cc1)(c1ccc(OC(F)(F)F)cc1)C1CCN(Cc2ccc(C3O[C@H]4CCC[C@H]4O3)cc2)CC1 (stereo partly shown) [Compound 119]	100	100	–
O=C(NCC1COC(c2ccc(CN3CCC(C(O)(c4ccc(OC(F)(F)F)cc4)c4ccc(OC(F)(F)F)cc4)CC3)cc2)O1)OCc1ccccc1 (stereo not shown) [Compound 95]	100	100	–
CC1(C)OC(c2ccc(CN3CCC(C(O)(c4ccc(OC(F)(F)F)cc4)c4ccc(OC(F)(F)F)cc4)CC3)cc2)OC1(C)C [Compound 122]	100	100	–
Cc1cc(CN2CCC(C(O)(c3ccc(OC(F)(F)F)cc3)c3ccc(OC(F)(F)F)cc3)CC2)ccc1C1OCCO1 [Compound 169]	–	100	100
COc1ccc(C2(COc3ccc(CN4CCC(C(O)(c5ccc(OC(F)(F)F)cc5)c5ccc(OC(F)(F)F)cc5)CC4)cc3)OCCO2)cc1 [Compound 192]	100	100	–
OC(c1ccc(OC(F)(F)F)cc1)(c1ccc(OC(F)(F)F)cc1)C1CCN(Cc2ccc(C3OCCO3)c(C(F)(F)F)c2)CC1 [Compound 172]	100	100	–
